Among the test systems are SNB-75 CNS; NCI-H522 lung; OVCAR-8 ovarian; SK-MEL-2 melanoma; TK-10 renal; MALME-3M melanoma; OVCAR-5 ovarian; HT29 colon; M14 melanoma.
Common to all, as to assay: NCI-60 cell line screen, 48 h

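How tested: cells in 96-well plates exposed to compound for 48 hours at five concentrations. The concentration for 50% growth inhibition is given as GI50. TGI marks complete inhibition of growth.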 A value given as a limit tells only on which side of the number the result lay.

Consider `CC1=C2C(=CC(C)(CO)C2O)C(=O)C(C)(O)C12CC2` (configuration not stated), for which the GI50 with SNB-75 CNS is 0.00576 µM; with NCI-H522 lung, 0.00088 µM. Moreover, the TGI in the experiment with SNB-75 CNS is 0.0165 µM; with NCI-H522 lung, 0.00421 µM; in the experiment on OVCAR-8 ovarian, 0.0127 µM; with SK-MEL-2 melanoma it was 0.00422 µM; in the experiment with TK-10 renal it was 0.0233 µM; in the experiment with MALME-3M melanoma it was 0.0105 µM. Besides, the TGI with OVCAR-5 ovarian turned out to be 0.0258 µM; in the experiment on HT29 colon, 0.0446 µM; in the experiment with M14 melanoma, 0.0104 µM.
Turning to `O=[N+]([O-])c1ccc2c(c1)OCCOCCOc1ccc([N+](=O)[O-])cc1OCCOCCO2`, the TGI in the experiment with SNB-75 CNS, with NCI-H522 lung, in the experiment on OVCAR-8 ovarian, with SK-MEL-2 melanoma, in the experiment with TK-10 renal and in the experiment on MALME-3M melanoma was over 100 µM in each case. Moreover, the TGI in the experiment with OVCAR-5 ovarian, in the experiment with HT29 colon and in the experiment on M14 melanoma was over 100 µM in each case.
Turning to `O=NN(CCCl)C(=O)NCc1ccc[n+]([O-])c1`, the TGI in the experiment on OVCAR-8 ovarian, with SK-MEL-2 melanoma, with TK-10 renal, with MALME-3M melanoma, in the experiment on OVCAR-5 ovarian and with HT29 colon was over 100 µM in each case. For the same compound, the TGI with M14 melanoma is over 100 µM.
For the compound `Brc1nc2c3ccccc3ncn2c1Br`, the TGI with SNB-75 CNS was 44.2 µM; with NCI-H522 lung it was 53.6 µM; in the experiment on OVCAR-8 ovarian it was over 100 µM; in the experiment on SK-MEL-2 melanoma, 82.6 µM; with TK-10 renal, over 100 µM; in the experiment with MALME-3M melanoma it was 33.2 µM. For the same compound, the TGI in the experiment with OVCAR-5 ovarian, with HT29 colon and in the experiment with M14 melanoma was over 100 µM in each case.
Regarding `O=[N+]([O-])c1ccc(OCCNc2cccc3ccccc23)cc1`, the TGI with SNB-75 CNS, in the experiment with NCI-H522 lung, in the experiment on OVCAR-8 ovarian, in the experiment on SK-MEL-2 melanoma, in the experiment with TK-10 renal and in the experiment on MALME-3M melanoma was over 100 µM throughout. Further, the TGI in the experiment on OVCAR-5 ovarian, in the experiment on HT29 colon and with M14 melanoma was over 100 µM in each case.
As to `CN(OC(=O)CC(=O)c1ccccc1)C(=O)Cc1ccccc1`, the TGI with NCI-H522 lung, in the experiment on OVCAR-8 ovarian, with SK-MEL-2 melanoma, in the experiment on TK-10 renal, in the experiment with MALME-3M melanoma and with OVCAR-5 ovarian was over 100 µM in each case. Further, the TGI in the experiment on HT29 colon and with M14 melanoma was over 100 µM throughout.
Turning to `COc1cccc(/C=C\c2cc(OC)c(OC)c(OC)c2)c1`, the TGI in the experiment on SNB-75 CNS is 20.4 µM; with NCI-H522 lung it was 1.58 µM; in the experiment with OVCAR-8 ovarian, over 100 µM; with MALME-3M melanoma it was 42.8 µM; in the experiment with OVCAR-5 ovarian, 63.6 µM; in the experiment with HT29 colon, 67.9 µM. The compound also yielded a TGI in the experiment with M14 melanoma of over 100 µM.
On to `O=C1C(c2ccc(Cl)cc2)=[N+]([O-])c2ccccc21`, for which the TGI with SNB-75 CNS was 42.2 µM; in the experiment with NCI-H522 lung, 21.9 µM; with OVCAR-8 ovarian, 25 µM; with SK-MEL-2 melanoma, 77.3 µM; with TK-10 renal, 30.1 µM; in the experiment on MALME-3M melanoma, 31.8 µM. For the same compound, the TGI was determined as 48.7 µM with OVCAR-5 ovarian, 43.6 µM in the experiment with HT29 colon and 27.7 µM with M14 melanoma.
Consider `C=CC[P@@]1(=O)O[C@H](c2ccccc2)C(C)N1C(C)C` (some centres not stated), for which the TGI in the experiment on SNB-75 CNS, with OVCAR-8 ovarian, with TK-10 renal, with MALME-3M melanoma, in the experiment with OVCAR-5 ovarian and in the experiment on HT29 colon was over 100 µM throughout. This compound also yielded a TGI in the experiment on M14 melanoma of over 100 µM.
As to `O=C1C2c3[nH]c4ccccc4c3C3CCSCC3C2C(=O)N1c1ccccc1` (configuration not stated), the TGI with SNB-75 CNS is 44.7 µM; with NCI-H522 lung it was over 100 µM; with OVCAR-8 ovarian, over 100 µM; with SK-MEL-2 melanoma it was over 100 µM; in the experiment on TK-10 renal it was over 100 µM; in the experiment with MALME-3M melanoma, over 100 µM. The TGI with OVCAR-5 ovarian, in the experiment with HT29 colon and in the experiment with M14 melanoma was over 100 µM throughout.
For the compound `CC(C)(C)c1ccc(Oc2ccc(C#N)c(C#N)c2)c(C(C)(C)C)c1`, the TGI was over 100 µM in the experiment with SNB-75 CNS; 60.6 µM with NCI-H522 lung; over 100 µM in the experiment with OVCAR-8 ovarian; 97.8 µM in the experiment on SK-MEL-2 melanoma; over 100 µM in the experiment with TK-10 renal; over 100 µM with MALME-3M melanoma. For the same compound, the TGI with OVCAR-5 ovarian, in the experiment with HT29 colon and with M14 melanoma was over 100 µM in each case.
In the case of `COCC1N=C(c2ccc(OC)c(OCc3ccccc3)c2OC)O[C@H]1c1ccccc1` (some centres not stated), the TGI in the experiment on SNB-75 CNS was over 100 µM; in the experiment on NCI-H522 lung, 69.3 µM; with OVCAR-8 ovarian, over 100 µM; with SK-MEL-2 melanoma, 53.3 µM; in the experiment with TK-10 renal it was over 100 µM; with OVCAR-5 ovarian it was 71.2 µM. The TGI in the experiment on HT29 colon came out at 59.7 µM; in the experiment on M14 melanoma, 35.2 µM.
Consider `CCCOP1(=O)C=C(C)C(Cl)=C(C)C1` (configuration not stated), for which the TGI in the experiment with SNB-75 CNS was 92.6 µM; in the experiment on NCI-H522 lung, 28.5 µM; in the experiment with OVCAR-8 ovarian it was over 100 µM; in the experiment on SK-MEL-2 melanoma, 32.2 µM; with TK-10 renal it was 63.9 µM; with OVCAR-5 ovarian, 77.4 µM. Moreover, the TGI in the experiment on HT29 colon is 49.3 µM; with M14 melanoma, 32.5 µM.
As to `N#CC12CCC(O)C(CC1)C2=O` (configuration not stated), the TGI in the experiment on SNB-75 CNS, with NCI-H522 lung, in the experiment with OVCAR-8 ovarian, in the experiment on SK-MEL-2 melanoma, with TK-10 renal and in the experiment on MALME-3M melanoma was over 100 µM each time. For the same compound, the TGI with OVCAR-5 ovarian, in the experiment with HT29 colon and in the experiment on M14 melanoma was over 100 µM throughout.
Take `O=C(c1ccccc1)c1ccc2cccc(O)c2n1`: the TGI is over 100 µM in the experiment on SNB-75 CNS; 39.8 µM with NCI-H522 lung; 71.9 µM with OVCAR-8 ovarian; over 100 µM in the experiment with SK-MEL-2 melanoma; over 100 µM in the experiment with TK-10 renal; over 100 µM with MALME-3M melanoma. The TGI in the experiment with OVCAR-5 ovarian was over 100 µM; in the experiment on M14 melanoma, 28 µM.
In the case of `CC(=O)CC(=O)CCCC(=O)Nc1ccc(Cl)cc1Cl`, the TGI in the experiment with SNB-75 CNS, in the experiment with NCI-H522 lung, in the experiment with OVCAR-8 ovarian, with SK-MEL-2 melanoma, in the experiment on TK-10 renal and in the experiment with MALME-3M melanoma was over 100 µM throughout. Further, the TGI with OVCAR-5 ovarian, in the experiment on HT29 colon and in the experiment on M14 melanoma was over 100 µM each time.
Consider `COC(=O)C(=O)C(C(=O)C(=O)Nc1ccc([N+](=O)[O-])cc1[N+](=O)[O-])c1nc2ccc([N+](=O)[O-])cc2[nH]c1=O` (configuration not stated), for which the TGI in the experiment with SNB-75 CNS is 84.9 µM; with NCI-H522 lung it was over 100 µM; in the experiment with OVCAR-8 ovarian it was over 100 µM; with TK-10 renal, over 100 µM; with MALME-3M melanoma it was over 100 µM; with OVCAR-5 ovarian it was over 100 µM. The TGI in the experiment on HT29 colon and in the experiment on M14 melanoma was over 100 µM in each case.
On to `Cc1c2[nH]c3ccc(Br)cc3c2c(C)c2[nH]ccc(=O)c12`, for which the TGI in the experiment with SNB-75 CNS was over 100 µM; in the experiment on NCI-H522 lung it was 28.5 µM; with OVCAR-8 ovarian it was 76.9 µM; in the experiment with SK-MEL-2 melanoma, 33.8 µM; with TK-10 renal it was 26.9 µM; in the experiment with MALME-3M melanoma, 28 µM. For the same compound, the TGI stood at 30 µM in the experiment on OVCAR-5 ovarian, 30.2 µM in the experiment on HT29 colon and 30.9 µM in the experiment with M14 melanoma.
In the case of `CCC12CCC(O)C1N(C)CCC2Sc1ccccc1` (configuration not stated), the TGI is 87.9 µM in the experiment with SNB-75 CNS; over 100 µM in the experiment with NCI-H522 lung; over 100 µM with OVCAR-8 ovarian; over 100 µM in the experiment on SK-MEL-2 melanoma; over 100 µM in the experiment with TK-10 renal; over 100 µM with MALME-3M melanoma. The TGI in the experiment on HT29 colon and in the experiment with M14 melanoma was over 100 µM each time.
With `Cc1ccc(C)c(NC(=O)CC2C(=O)Nc3ccccc3S2(=O)=O)c1` (configuration not stated), the TGI was 45.7 µM in the experiment with SNB-75 CNS; over 100 µM in the experiment on OVCAR-8 ovarian; over 100 µM in the experiment with SK-MEL-2 melanoma; over 100 µM with TK-10 renal; 96.2 µM in the experiment on MALME-3M melanoma; over 100 µM in the experiment with OVCAR-5 ovarian. Also, the TGI with HT29 colon and in the experiment with M14 melanoma was over 100 µM throughout.
For `O=C(Nc1ccccc1)O/N=C1/CCCC/C1=C\c1ccccc1`, the TGI in the experiment with SNB-75 CNS came out at 28.6 µM; with NCI-H522 lung, 30.4 µM; in the experiment on OVCAR-8 ovarian it was 42.8 µM; in the experiment on SK-MEL-2 melanoma, 29.2 µM; in the experiment with TK-10 renal, 31.7 µM; with OVCAR-5 ovarian, 63.9 µM. Besides, the TGI stood at 95.1 µM in the experiment on HT29 colon and 32.8 µM in the experiment on M14 melanoma.
Consider `N#Cc1c2ccccc2c2nnc3cc(C(F)(F)F)ccc3n12`, for which the GI50 was over 100 µM in the experiment on SNB-75 CNS; 68.6 µM in the experiment on OVCAR-8 ovarian; 99.8 µM with TK-10 renal; over 100 µM with MALME-3M melanoma; 58 µM with HT29 colon; 29.7 µM in the experiment on M14 melanoma. Further, the TGI in the experiment on SNB-75 CNS, with OVCAR-8 ovarian, with TK-10 renal, in the experiment with MALME-3M melanoma, in the experiment with HT29 colon and in the experiment with M14 melanoma was over 100 µM throughout.
In the case of `CC1(c2ccccc2)CC12C(=O)NC(=O)NC2=O` (configuration not stated), the TGI with NCI-H522 lung, in the experiment on OVCAR-8 ovarian, with SK-MEL-2 melanoma, in the experiment on TK-10 renal, in the experiment with MALME-3M melanoma and in the experiment with OVCAR-5 ovarian was over 100 µM each time. Further, the TGI with HT29 colon and with M14 melanoma was over 100 µM in each case.
